Reference: patent US20200325177A1, “METHODS OF MAKING STREPTOGRAMIN COMPOSITIONS AND THE USE THEREOF” (THE REGENTS OF THE UNIVERSITY OF CALIFORNIA, priority 2017, published 2020)
In brackets after ≈: the same amount, converted by molar mass. Where two headings read alike, the source gives them in different places.

How the values were obtained:
Assay type in all cases: cell-based
E. faecalis = test: MIC, Gram-positive bacteria: E. faecalis; conditions: Enterococcus faecalis, column 1, read-out: Minimal Inhibitory Concentration (MIC) E. faecalis
E. faecium ATCC 35667 = test: MIC, Gram-positive bacteria: E. faecium ATCC 35667; conditions: Enterococcus faecium, ATCC35667, column 2, read-out: Minimal Inhibitory Concentration (MIC) E. faecium ATCC 35667
E. faecium VRE; vanA = test: MIC, Gram-positive bacteria: E. faecium VRE; vanA; conditions: Enterococcus faecium, column 3, read-out: Minimal Inhibitory Concentration (MIC) E. faecium VRE
S. aureus = test: MIC, Gram-positive bacteria: S. aureus (strains not named); conditions: Staphylococcus aureus, read-out: Minimal Inhibitory Concentration (MIC) S. aureus
[1] = tested on: S. aureus Vat A streptogramin; test: MIC, Gram-positive bacteria: S. aureus Vat A streptogramin; conditions: Staphylococcus aureus; Gram-positive; column 5; read-out: Minimal Inhibitory Concentration (MIC) S. aureus Vat A streptogramin
[2] = tested on: S. aureus Linezolid-resistant; cfr; test: MIC, Gram-positive bacteria: S. aureus Linezolid-resistant; cfr; conditions: Staphylococcus aureus, column 9, read-out: Minimal Inhibitory Concentration (MIC) S. aureus Linezolid-resistant
S. pneumoniae = test: MIC, Gram-positive bacteria: S. pneumoniae; conditions: Streptococcus pneumoniae, column 10, read-out: Minimal Inhibitory Concentration (MIC) S. pneumoniae
[3] = tested on: K. pneumoniae multidrug-resistant; test: MIC, Gram-negative bacteria: K. pneumoniae multidrug-resistant; conditions: Klebsiella pneumoniae, read-out: Minimal Inhibitory Concentration (MIC) K. pneumoniae multidrug-resistant
P. aeruginosa ATCC 27853 = test: MIC, Gram-negative bacteria: P. aeruginosa ATCC 27853; conditions: Pseudomonas aeruginosa, ATCC27853, read-out: Minimal Inhibitory Concentration (MIC) P. aeruginosa ATCC 27853
[4] = tested on: P. aeruginosa MDR clinical isolate; test: MIC, Gram-negative bacteria: P. aeruginosa MDR clinical isolate; conditions: Pseudomonas aeruginosa, read-out: Minimal Inhibitory Concentration (MIC) P. aeruginosa MDR clinical isolate
H. influenzae ATCC 49247 = test: MIC, Gram-negative bacteria: H. influenzae ATCC 49247; conditions: Haemophilus influenzae, ATCC49247, read-out: Minimal Inhibitory Concentration (MIC) H. influenzae ATCC 49247
Gram-Negative Organisms = test: microbe, parasite or virus in culture
[5] = first unnamed S. aureus column (c4)
[6] = fourth unnamed S. aureus column (c8)
[7] = second unnamed S. aureus column (c6)
[8] = third unnamed S. aureus column (c7)
[9] = Acinetobacter baumannii, ATCC19606, read-out: Minimal Inhibitory Concentration (MIC), A. baumannii ATCC 19606
[10] = Escherichia coli, ATCC25922, read-out: Minimal Inhibitory Concentration (MIC), E. coli ATCC 25922
[11] = Escherichia coli, read-out: Minimal Inhibitory Concentration (MIC), E. coli BAS2006, OMP C, OMP F
[12] = Escherichia coli, read-out: Minimal Inhibitory Concentration (MIC), E. coli olC efflux defective
[13] = Escherichia coli, read-out: Minimal Inhibitory Concentration (MIC), E. coli permeability mutant BAS1314, IMP4213ZAB::TN10
[14] = Klebsiella pneumoniae, ATCC43816, read-out: Minimal Inhibitory Concentration (MIC), K. pneumoniae ATCC 43816
[15] = Escherichia coli, read-out: Minimal Inhibitory Concentration (MIC), E. coli ΔompC768, KanR insert

Row | Structure (SMILES) | MIC (E. faecalis) [µg/mL] | MIC (E. faecium ATCC 35667) [µg/mL] | MIC (E. faecium VRE; vanA) [µg/mL] | MIC (S. aureus; [5]) [µg/mL] | MIC (S. aureus; [6]) [µg/mL] | MIC (S. aureus; [7]) [µg/mL] | MIC (S. aureus; [8]) [µg/mL] | MIC [1] [µg/mL] | MIC [2] [µg/mL] | MIC (S. pneumoniae) [µg/mL] | MIC [3] [µg/mL] | MIC (P. aeruginosa ATCC 27853) [µg/mL] | MIC [4] [µg/mL] | MIC (H. influenzae ATCC 49247) [µg/mL] | MIC (Gram-Negative Organisms; [9]) [µg/mL] | MIC (Gram-Negative Organisms; [10]) [µg/mL] | MIC (Gram-Negative Organisms; [11]) [µg/mL] | MIC (Gram-Negative Organisms; [12]) [µg/mL] | MIC (Gram-Negative Organisms; [13]) [µg/mL] | MIC (Gram-Negative Organisms; [14]) [µg/mL] | also measured
1 | CC1=C\[C@@H](O)CC(=O)Cc2nc(co2)C(=O)N2CCC[C@@H]2C(=O)O[C@H]([C@@H](C)COC(=O)Nc2ccccn2)[C@H](C)/C=C/C(=O)NC\C=C\1 [SA0110120] | > 64 | 32 (≈ 48.2 µM) | 64 (≈ 96.4 µM) | 64 (≈ 96.4 µM) | 32 (≈ 48.2 µM) | 64 (≈ 96.4 µM) | > 64 | > 64 | > 64 | 16 (≈ 24.1 µM) | > 64 | > 64 | > 64 | 32 (≈ 48.2 µM) | > 64 | > 64 | 32 (≈ 48.2 µM) | 4 (≈ 6.03 µM) | 8 (≈ 12.1 µM) | > 64 | –
2 | CC1=C\[C@@H](O)CC(=O)Cc2nc(co2)C(=O)N[C@H](Cc2ccccc2)C(=O)O[C@H](C(C)C)[C@H](C)/C=C/C(=O)NC\C=C\1 [SA0202061] | 32 (≈ 55.4 µM) | 32 (≈ 55.4 µM) | 64 (≈ 111 µM) | 64 (≈ 111 µM) | 64 (≈ 111 µM) | 64 (≈ 111 µM) | 64 (≈ 111 µM) | 64 (≈ 111 µM) | > 64 | 16 (≈ 27.7 µM) | > 64 | > 64 | > 64 | > 64 | > 64 | > 64 | 16 (≈ 27.7 µM) | 4 (≈ 6.92 µM) | 4 (≈ 6.92 µM) | > 64 | –
3 | CC1=C\[C@@H](O)CC(=O)Cc2nc(co2)C(=O)N2CCC[C@@H]2C(=O)O[C@H]([C@@H](C)CN2CCN(C)CC2)[C@H](C)/C=C/C(=O)NC\C=C\1 [SA0110241] | > 64 | > 64 | > 64 | > 64 | > 64 | > 64 | > 64 | > 64 | > 64 | > 64 | > 64 | > 64 | > 64 | > 64 | > 64 | > 64 | > 64 | > 64 | > 64 | > 64 | MIC (Gram-Negative Organisms; [15]): > 64 µg/mL
4 | CC1=C\[C@@H](O)CC(=O)Cc2nc(co2)C(=O)N2CCC[C@@H]2C(=O)O[C@H]([C@@H](C)COC(=O)Nc2cccnc2)[C@H](C)/C=C/C(=O)NC\C=C\1 [SA0110067] | > 64 | 32 (≈ 48.2 µM) | > 64 | > 64 | 64 (≈ 96.4 µM) | > 64 | > 64 | > 64 | > 64 | 32 (≈ 48.2 µM) | > 64 | > 64 | > 64 | > 64 | > 64 | > 64 | 64 (≈ 96.4 µM) | 8 (≈ 12.1 µM) | 32 (≈ 48.2 µM) | > 64 | –
5 | CC1=C\[C@@H](O)CC(=O)Cc2nc(co2)C(=O)N2CCC=C2C(=O)O[C@H](C(C)C)[C@H](C)/C=C/C(=O)NC\C=C\1 [virginiamycin M1, Virginiamycin M1, reference compound] | 32 (≈ 60.9 µM) | 2 (≈ 3.81 µM) | 4 (≈ 7.61 µM) | 4 (≈ 7.61 µM) | 2 (≈ 3.81 µM) | 2 (≈ 3.81 µM) | 8 (≈ 15.2 µM) | 32 (≈ 60.9 µM) | > 64 | 4 (≈ 7.61 µM) | > 64 | > 64 | > 64 | 1 (≈ 1.9 µM) | > 64 | > 64 | > 64 | 2 (≈ 3.81 µM) | 0.25 (≈ 0.476 µM) | > 64 | –
6 | C[C@H]1COc2c(N3CCN(C)CC3)c(F)cc3c(=O)c(C(=O)O)cn1c23 [levofloxacin] | 1 (≈ 2.77 µM) | 4 (≈ 11.1 µM) | > 8 | 0.25 (≈ 0.692 µM) | 2 (≈ 5.53 µM) | 0.12 (≈ 0.332 µM) | 0.25 (≈ 0.692 µM) | 1 (≈ 2.77 µM) | 8 (≈ 22.1 µM) | 0.5 (≈ 1.38 µM) | 1 (≈ 2.77 µM) | 2 (≈ 5.53 µM) | > 8 | 0.03 (≈ 0.083 µM) | 0.25 (≈ 0.692 µM) | 0.015 (≈ 0.0415 µM) | – | – | – | 0.03 (≈ 0.083 µM) | MIC (Gram-Negative Organisms; [15]): 0.015 µg/mL (≈ 0.0415 µM)
7 | CC1=C\[C@@H](O)CC(=O)Cc2nc(co2)C(=O)N[C@H](Cc2ccc(O)cc2)C(=O)O[C@H](C(C)C)[C@H](C)/C=C/C(=O)NC\C=C\1 [SA0202097] | > 64 | > 64 | > 64 | > 64 | > 64 | > 64 | > 64 | > 64 | > 64 | 64 (≈ 108 µM) | > 64 | > 64 | > 64 | > 64 | > 64 | > 64 | > 64 | 32 (≈ 53.9 µM) | 32 (≈ 53.9 µM) | > 64 | MIC (Gram-Negative Organisms; [15]): > 64 µg/mL
8 | CC1=C\[C@@H](O)CC(=O)Cc2nc(co2)C(=O)N2CCC[C@@H]2C(=O)O[C@H]([C@@H](C)COC(=O)Nc2csc(C)n2)[C@H](C)/C=C/C(=O)NC\C=C\1 [SA0110098] | > 64 | 16 (≈ 23.4 µM) | 64 (≈ 93.6 µM) | 64 (≈ 93.6 µM) | 32 (≈ 46.8 µM) | 32 (≈ 46.8 µM) | 64 (≈ 93.6 µM) | > 64 | > 64 | 16 (≈ 23.4 µM) | > 64 | > 64 | > 64 | 32 (≈ 46.8 µM) | > 64 | > 64 | 16 (≈ 23.4 µM) | 2 (≈ 2.92 µM) | 8 (≈ 11.7 µM) | > 64 | –
9 | CC1=C\[C@@H](O)CC(=O)Cc2nc(co2)C(=O)N2CCC[C@@H]2C(=O)O[C@H]([C@@H](C)COC(=O)Nc2ccc(C(F)(F)F)cc2)[C@H](C)/C=C/C(=O)NC\C=C\1 [SA0110044] | > 64 | 16 (≈ 21.9 µM) | > 64 | > 64 | 32 (≈ 43.8 µM) | > 64 | > 64 | > 64 | > 64 | > 64 | > 64 | > 64 | > 64 | > 64 | > 64 | > 64 | > 64 | 16 (≈ 21.9 µM) | 16 (≈ 21.9 µM) | > 64 | –
10 | COc1ccc(NC(=O)OC[C@@H](C)[C@H]2OC(=O)[C@H]3CCCN3C(=O)c3coc(n3)CC(=O)C[C@H](O)/C=C(C)/C=C/CNC(=O)/C=C/[C@H]2C)cc1 [SA0110185] | > 64 | 16 (≈ 23.1 µM) | 32 (≈ 46.2 µM) | 32 (≈ 46.2 µM) | 16 (≈ 23.1 µM) | 16 (≈ 23.1 µM) | 32 (≈ 46.2 µM) | > 64 | > 64 | 32 (≈ 46.2 µM) | > 64 | > 64 | > 64 | 16 (≈ 23.1 µM) | > 64 | > 64 | 64 (≈ 92.4 µM) | 2 (≈ 2.89 µM) | 4 (≈ 5.77 µM) | > 64 | MIC (Gram-Negative Organisms; [15]): > 64 µg/mL
11 | CC1=C\[C@@H](O)C[C@@H](F)Cc2nc(cs2)C(=O)N2CCC[C@@H]2C(=O)O[C@H](C(C)C)[C@H](C)/C=C/C(=O)NC\C=C\1 [SA0110279] | > 64 | 0.5 (≈ 0.913 µM) | 1 (≈ 1.83 µM) | 0.5 (≈ 0.913 µM) | 0.5 (≈ 0.913 µM) | 0.5 (≈ 0.913 µM) | 1 (≈ 1.83 µM) | 8 (≈ 14.6 µM) | > 64 | 1 (≈ 1.83 µM) | > 64 | > 64 | > 64 | 0.25 (≈ 0.456 µM) | > 64 | 32 (≈ 58.4 µM) | 0.25 (≈ 0.456 µM) | 1 (≈ 1.83 µM) | < 0.06 | > 64 | MIC (Gram-Negative Organisms; [15]): 32 µg/mL (≈ 58.4 µM)
